Patent publication US10947252B2, “Inhibitors of KEAP1-Nrf2 protein-protein interaction” (Janssen Pharmaceutica NV, priority 2018, dated 2021)

Assays:
[1] = biological target: Kelch domain of human KEAP1 (321-624 aa) (Homo sapiens (Human), UniProt Q14145); experiment: KEAP1 KELCH ThermoFluor binding assay; conditions: KEAP Kelch […], 1,8-ANS, pH 7.0, average of results obtained, read-out: Tf Kd;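 further: Ligand-induced melting temperature shift of E. coli-expressed KEAP1 Kelch protein, Kd estimated from concentration-response curves of ΔTm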
Sequence of Kelch domain of human KEAP1 (321-624 aa) (Q14145 321-624): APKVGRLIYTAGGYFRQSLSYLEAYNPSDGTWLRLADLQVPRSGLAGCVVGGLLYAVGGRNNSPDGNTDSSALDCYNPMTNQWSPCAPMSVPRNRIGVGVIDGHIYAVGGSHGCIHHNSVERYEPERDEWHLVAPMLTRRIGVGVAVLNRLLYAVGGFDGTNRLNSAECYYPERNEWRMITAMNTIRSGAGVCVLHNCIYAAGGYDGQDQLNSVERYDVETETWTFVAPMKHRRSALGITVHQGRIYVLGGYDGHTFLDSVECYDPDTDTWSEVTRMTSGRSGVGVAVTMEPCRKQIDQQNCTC

[2] = system: Glo-Response ARE-luc2P HEK293 cell line; experiment: ARE luciferase reporter cell-based assay; conditions: Homo sapiens, HEK293, 24 h, average of results obtained;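 further: luciferase signal tracks Nrf2 activation of the ARE once compounds disrupt KEAP1-Nrf2 binding, read with One-Glo reagent, DMSO serving as low control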

Kd [1] [nM]	Structure (SMILES)	EC50 [2] [nM]
4.28	CCn1nnc2c(C)c([C@H](c3cc(CN4CC5(CNC5)Oc5ncc(C)cc5S4(=O)=O)c(C)cn3)C(C)(C)C(=O)O)ccc21 (single isomer, unassigned) [Example 595, (*S)-3-(1-Ethyl-4-methyl-1H-benzo[d][1,2,3]triazol-5-yl)-2,2-dimethyl-3-(5-methyl-4-((8′-methyl-1′,1′-dioxidospiro[azetidine-3,4′-pyrido[2,3-b][1,4,5]oxathiazepin]-2′(3′H)-yl)methyl)pyridin-2-yl)propanoic Acid]	139
< 1	Cc1ccc([C@@H](c2ccn3c(C(F)(F)F)nnc3c2C)C(C)(C)C(=O)O)cc1CN1CC2(CC2)Oc2nc(OCCN3CC(F)C3)c(C)cc2S1(=O)=O (single isomer, unassigned) [Example 596, (*S)-3-(3-((7′-(2-(3-fluoroazetidin-1-yl)ethoxy)-8′-methyl-1′,1′-dioxidospiro[cyclopropane-1,4′-pyrido[2,3-b][1,4,5]oxathiazepin]-2′(3′H)-yl)methyl)-4-methylphenyl)-2,2-dimethyl-3-(8-methyl-3-(trifluoromethyl)-[1,2,4]triazolo[4,3-a]pyridine-7-yl)propanoic Acid]	3.08
< 1	Cc1ccc([C@@H](c2ccn3c(C(F)(F)F)nnc3c2C)C(C)(C)C(=O)O)cc1CN1CC2(CC2)Oc2nc(OCCN3CCOCC3)c(C)cc2S1(=O)=O (single isomer, unassigned) [Example 597, (*S)-2,2-dimethyl-3-(4-methyl-3-((8′-methyl-7′-(2-morpholinoethoxy)-1′,1′-dioxidospiro[cyclopropane-1,4′-pyrido[2,3-b][1,4,5]oxathiazepin]-2′,(3′H)-yl)methyl)phenyl)-3-(8-methyl-3-(trifluoromethyl)-[1,2,4]triazolo[4,3-a]pyridine-7-yl)propanoic Acid]	2.79
< 1	Cc1ccc([C@@H](c2ccn3c(C(F)(F)F)nnc3c2C)C(C)(C)C(=O)O)cc1CN1CC2(CCOCC2)Oc2nc(CCC(N)=O)ccc2S1(=O)=O (single isomer, unassigned) [Example 599, (*S)-3-(3-((7′-(3-amino-3-oxopropyl)-1′,1′-dioxido-2,3,5,6-tetrahydrospiro[pyran-4,4′-pyrido[2,3-b][1,4,5]oxathiazepin]-2′(3′H)-yl)methyl)-4-methylphenyl)-2,2-dimethyl-3-(8-methyl-3-(trifluoromethyl)-[1,2,4]triazolo[4,3-a]pyridine-7-yl)propanoic Acid]	246
< 1	Cc1ccc([C@@H](c2ccn3c(C(F)(F)F)nnc3c2C)C(C)(C)C(=O)O)cc1CN1CC2(CCOCC2)Oc2nc(O[C@H](C)CN3CCCCC3)c(C)cc2S1(=O)=O (single isomer, unassigned) [Example 601, (*S)-2,2-Dimethyl-3-(4-methyl-3-((8′-methyl-1′,1′-dioxido-7′-(((*R)-1-(piperidin-1-yl)propan-2-yl)oxy)-2,3,5,6-tetrahydrospiro[pyran-4,4′-pyrido[2,3-b][1,4,5]oxathiazepin]-2′,(3′H)-yl)methyl)phenyl)-3-(8-methyl-3-(trifluoromethyl)-[1,2,4]triazolo[4,3-a]pyridine-7-yl)propanoic Acid]	4.79
< 1	Cc1ccc([C@@H](c2ccn3c(C(F)(F)F)nnc3c2C)C(C)(C)C(=O)O)cc1CN1CC2(CCOCC2)Oc2nc(O[C@@H](C)CN3CCCCC3)c(C)cc2S1(=O)=O (single isomer, unassigned) [Example 602, (*S)-2,2-Dimethyl-3-(4-methyl-3-((8′-methyl-1′,1′-dioxido-7′-(((*S)-1-(piperidin-1-yl)propan-2-yl)oxy)-2,3,5,6-tetrahydrospiro[pyran-4,4′-pyrido[2,3-b][1,4,5]oxathiazepin]-2′,(3′H)-yl)methyl)phenyl)-3-(8-methyl-3-(trifluoromethyl)-[1,2,4]triazolo[4,3-a]pyridine-7-yl)propanoic Acid]	2.72
< 1	Cc1ccc([C@H](c2ccn3c(C(F)(F)F)nnc3c2C)C(C)(C)C(=O)O)cc1CN1CC2(CCOCC2)Oc2nc(N[C@H](C)CN3CCCCC3)c(C)cc2S1(=O)=O (single isomer, unassigned) [Example 603, (*R)-2,2-Dimethyl-3-(4-methyl-3-((8′-methyl-1′,1′-dioxido-7′-(((*R)-1-(piperidin-1-yl)propan-2-yl)amino)-2,3,5,6-tetrahydrospiro[pyran-4,4′-pyrido[2,3-b][1,4,5]oxathiazepin]-2′(3′H)-yl)methyl)phenyl)-3-(8-methyl-3-(trifluoromethyl)-[1,2,4]triazolo[4,3-a]pyridine-7-yl)propanoic Acid]	55
< 1	Cc1ccc([C@@H](c2ccn3c(C(F)(F)F)nnc3c2C)C(C)(C)C(=O)O)cc1CN1CC2(CC2)Oc2nc(OCCN3CCC3)c(C)cc2S1(=O)=O (single isomer, unassigned) [Example 604, (*S)-3-(3-((7′-(2-(Azetidin-1-yl)ethoxy)-8′-methyl-1′,1′-dioxidospiro[cyclopropane-1,4′-pyrido[2,3-b][1,4,5]oxathiazepin]-2′(3′H)-yl)methyl)-4-methylphenyl)-2,2-dimethyl-3-(8-methyl-3-(trifluoromethyl)-[1,2,4]triazolo[4,3-a]pyridine-7-yl)propanoic Acid]	8.82
< 1	Cc1ccc([C@@H](c2ccn3c(C(F)(F)F)nnc3c2C)C(C)(C)C(=O)O)cc1CN1CC2(CCOCC2)Oc2nc(CCC(=O)NC3CCC3)ccc2S1(=O)=O (single isomer, unassigned) [Example 605, (*S)-3-(3-((7′-(3-Cyclobutylamino-3-oxopropyl)-1′,1′-dioxido-2,3,5,6-tetrahydrospiro[pyran-4,4′-pyrido[2,3-b][1,4,5]oxathiazepin]-2′(3′H)-yl)methyl)-4-methylphenyl)-2,2-dimethyl-3-(8-methyl-3-(trifluoromethyl)-[1,2,4]triazolo[4,3-a]pyridine-7-yl)propanoic Acid]	109
1730	Cc1ccc([C@@H](c2ccn3c(C(F)(F)F)nnc3c2C)C(C)(C)C(=O)O)cc1CN1CC2(CCOCC2)Oc2nc(OCCO)ccc2S1(=O)=O (single isomer, unassigned) [Example 606, (*S)-3-(3-((7′-(2-Hydroxyethoxy)-1′,1′-dioxido-2,3,5,6-tetrahydrospiro[pyran-4,4′-pyrido[2,3-b][1,4,5]oxathiazepin]-2′(3′H)-yl)methyl)-4-methylphenyl)-2,2-dimethyl-3-(8-methyl-3-(trifluoromethyl)-[1,2,4]triazolo[4,3-a]pyridine-7-yl)propanoic Acid]	> 20000
1360	Cc1ccc([C@@H](c2ccn3c(C(F)(F)F)nnc3c2C)C(C)(C)C(=O)O)cc1CN1CC2(CCOCC2)Oc2nc(OCCCOCCCO)ccc2S1(=O)=O (single isomer, unassigned) [Example 607, (*S)-3-(3-((7′-(3-(3-Hydroxypropoxy)propoxy)-1′,1′-dioxido-2,3,5,6-tetrahydrospiro[pyran-4,4′-pyrido[2,3-b][1,4,5]oxathiazepin]-2′(3′H)-yl)methyl)-4-methylphenyl)-2,2-dimethyl-3-(8-methyl-3-(trifluoromethyl)-[1,2,4]triazolo[4,3-a]pyridin-7-yl)propanoic Acid]	7620
< 1	Cc1ccc([C@H](c2ccn3c(C(F)(F)F)nnc3c2C)C(C)(C)C(=O)O)cc1CN1CC2(CCOCC2)Oc2nc(OCCCOCCCO)ccc2S1(=O)=O (single isomer, unassigned) [Example 608, (*R)-3-(3-((7′-(3-(3-Hydroxypropoxy)propoxy)-1′,1′-dioxido-2,3,5,6-tetrahydrospiro[pyran-4,4′-pyrido[2,3-b][1,4,5]oxathiazepin]-2′(3′H)-yl)methyl)-4-methylphenyl)-2,2-dimethyl-3-(8-methyl-3-(trifluoromethyl)-[1,2,4]triazolo[4,3-a]pyridin-7-yl)propanoic Acid]	9.12
634	Cc1ccc([C@H](c2ccn3c(C(F)(F)F)nnc3c2C)C(C)(C)C(=O)O)cc1CN1CC2(CCOCC2)Oc2nc(OCCN3CCCC3)c(C)cc2S1(=O)=O (single isomer, unassigned) [Example 609, (*R)-2,2-Dimethyl-3-(4-methyl-3-((8′-methyl-1′,1′-dioxido-7′-(2-(pyrrolidin-1-yl)ethoxy)-2,3,5,6-tetrahydrospiro[pyran-4,4′-pyrido[2,3-b][1,4,5]oxathiazepin]-2′(3′H)-yl)methyl)phenyl)-3-(8-methyl-3-(trifluoromethyl)-[1,2,4]triazolo[4,3-a]pyridin-7-yl)propanoic Acid]	> 20000
< 1	Cc1ccc([C@@H](c2ccn3c(C(F)F)nnc3c2C)C(C)(C)C(=O)O)nc1CN1CC2(COC2)Oc2ncccc2S1(=O)=O (single isomer, unassigned) [Example 610, (*S)-3-(3-(Difluoromethyl)-8-methyl-[1,2,4]triazolo[4,3-a]pyridin-7-yl)-3-(6-((1′,1′-dioxidospiro[oxetane-3,4′-pyrido[2,3-b][1,4,5]oxathiazepin]-2′(3′H)-yl)methyl)-5-methylpyridin-2-yl)-2,2-dimethylpropanoic Acid]	4.42

Structure (SMILES)	Kd [1] [nM]	EC50 [2] [nM]
Cc1ccc([C@@H](c2ccn3c(C(F)(F)F)nnc3c2C)C(C)(C)C(=O)O)cc1CN1CC2(CC2)Oc2nc(OCCN3CCCC3)ccc2S1(=O)=O (single isomer, unassigned) [Example 598, (*S)-3-(3-((1′,1′-dioxido-7′-(2-(pyrrolidine-1-yl)ethoxy)spiro[cyclopropane-1,4′-pyrido[2,3-b][1,4,5]oxathiazepin]-2′(3′H)-yl)methyl)-4-methylphenyl)-2,2-dimethyl-3-(8-methyl-3-(trifluoromethyl)-[1,2,4]triazolo[4,3-a]pyridine-7-yl)propanoic Acid]	< 1	8.85
